This assay has as its system autoantibodies against cit-4 (anti-citrullinated SETDB1 antibody). Kind of assay: indirect ELISA of autoantibodies against biotin-conjugated citrullinated short polypeptides in serum. Type of assay: binding, human. On the procedure:
The autoantibody expression levels of the citrulline markers were detected using an indirect ELISA method. In short, biotin-conjugated short polypeptides were first coated onto PABC plates at a concentration of 50 ng/well. After coating, serum from 24 rheumatoid arthritis (RA) patients and 24 healthy subjects (HC) were diluted 10-fold as primary antibodies and incubated for 30 minutes. HRP-labeled goat anti-human IgG (GAH-HRP) was used as secondary antibody, incubation was performed for 30 minutes, and color development and reading were finally carried out.
The expression level of citrulline marker autoantibodies in patients with rheumatoid arthritis was detected using an indirect ELISA method (see Example 1 for details). In addition, anti-citrullinated peptide antibody (CCP2) was used as a control. […]
The cit-4 antibody level was detected in a CCP2-negative patient population using an indirect ELISA method (see Example 1 for details).
The levels of citrullinated SETDB1 autoantibodies in the serum of patients with different autoimmune diseases (RA rheumatoid arthritis, SLE systemic lupus erythematosus, PSS primary Sjögren's syndrome, and SSc scleroderma) were detected using an indirect ELISA method (see Example 1 for details). […]
On the technique in general: An ELISA detects its analyte on a solid surface through an enzyme-linked reagent.

Non-standard residues stand in square brackets, D forms with d. No end group written: not given here. Cit = NC(=O)NCCC[C@H](N)C(=O)O

For “NPLLVPLLYDFXXMTAXXXVNXK (NPLLVPLLYDF[Cit][Cit]MTA[Cit][Cit][Cit]VN[Cit]K; also: conjugated with biotin) [cit-4]”, the “level of autoantibodies in rheumatoid arthritis” value (Example 1, Fig. 1A, serum of 24 RA patients vs 24 healthy subjects (HC), diluted 10-fold, peptide coated 50 ng/well, GAH-HRP secondary antibody) was “significantly elevated”. For the same sequence, the “level of citrullinated SETDB1 autoantibodies” value (Example 4, Fig. 4A, serum of patients with different autoimmune diseases (RA, SLE, PSS, SSc)) is recorded as “the highest in rheumatoid arthritis”.

Values taken from patent EP4759821A1, “CITRULLINATED SETDB1 POLYPEPTIDE AND USE THEREOF IN DIAGNOSIS OF RHEUMATOID ARTHRITIS” (Xiamen University, priority 2023, dated 2025).
